Measured values published in article PMC11634579, “Network pharmacology, experimental validation and pharmacokinetics integrated strategy to reveal pharmacological mechanism of goutengsan on methamphetamine dependence” (Frontiers in Pharmacology, 2024).
“Also recorded” adds a separate entry of the source. Counter-ions that a name gives are not always drawn.

What was measured:
[1] = set-up: method as in Ru et al., 2014; conditions: obtained from TCMSP database; ref Ru et al., 2014; cited from earlier work
[2] = Pharmacokinetics and brain tissue distribution after gavage of GTS (UPLC-MS); format: in vivo, Babl/c mice; conditions: mice; for exposure in plasma and brain / detection in brain tissues / detection in plasma: after oral administration of GTS; for time at which concentration in brain peaked: gavage of GTS infusion (2.75 g crude drug/mL, 2 mL/kg), sampling 0.5, 2, 4, 6, 9 h
Method: Animal experiments: Babl/c mice weighing 18–22 g (6–8 weeks old) with equal numbers of males and females, were provided by the Experimental Animal Center of Southern Medical University. The mice were maintained at room temperature (20 ± 2) °C, humidity (60 ± 5)%, 12 h light cycles, and provided an ad libitum diet. Thirty mice were randomly divided into 0.5, 2, 4, 6 and 9 h groups, with 6 mice each. An infusion at concentration of 2.75 g of GTS crude drug/mL was obtained, and the drug was administered by gavage at a dose of 2 mL GTS infusion drug/kg. After 0.5, 2, 4, 6 and 9 h of administration, the plasma and brain tissues in the 0.5, 2, 4, 6 and 9 h groups were collected. The plasma and brain tissue samples were processed in accordance with biological sample processing procedures.
Establishment of UPLC-MS method: An LCMS-8050 liquid chromatography mass spectrometer (Shimadzu, Japan) was operated with a horizon C18 column (100 × 2.1 mm, 3 µm). The mobile phase was 0.1% formic acid in water (A) - acetonitrile (B), and the gradient elution was 0–8 min, 10%–50% B; 8–9 min, 50%–10% B; 9–11 min, 10% B. The column temperature was 30°C, the injection volume was 5 μL, and flow rate was 0.4 mL min^−1. The mass spectrometry conditions included HPLC-MS/MS in […] full-scan and sub-ion scanning modes, an electrospray ionization source (ESI), positive and negative ion mode detection, and nebulizing gas of nitrogen (N2). The zeroed gas flow rate was 3 L min^−1, desolventization temperature was 526°C, and DL temperature was 250°C. Then the parent ion, daughter ion, collision energy, and polarity of the above components were determined (Table 2).

[3] = MTT detection of cell viability; format: cell-based, human; conditions: human, SH-SY5Y cells, 200 μmol ·L^−1, 48 h
Method: (§1) SH-SY5Y cells were inoculated into a 96-well plate. […] After 48 h of incubation at 6 wells per concentration, MTT was added for 4 h. Then incubation was stopped, the liquid was discarded, and dimethyl sulfoxide was added. After horizontal shakening for 5 min, the absorbance at 490 nm was measured using an enzyme-linked immunosorbent assay (Elisa) reader ([Yang et al., 2018]).

SH-SY5Y cells = assay: MTT detection of cell viability; format: cell-based, human; conditions: 48 h
Method: as §1

5-HT = assay: Elisa detection of 5-HT in MA-induced SH-SY5Y cells; format: cell-based, human; conditions: vs MA model group (100 μmol ·L^−1 MA, 48 h); 4x equivalent dose GTS-containing serum, MK-801 100 μmol ·L^−1
Method: (§2) An equal volume of the complete culture medium was added to the control group. The drug-containing culture medium (100 μmol ·L^−1 MA) was added to MA model group. […] After medication, all groups were continued for 48 h, photographed, and used for the next experiment.
(§3) The above SH-SY5Y cells were inoculated onto a 6-well plate, and cultured for 24 h. Then the culture medium was aspirated. The cells were rinsed with phosphate buffered salt (PBS) once. After PBS was removed, a hydrochloric acid solution was added. The cells were scraped to form cell suspension. After centrifugation, the supernatant was extracted, and the cAMP and 5-HT levels of the cells were detected according to the instructions of an Elisa reagent kit (Dakewei Biotechnology Co., Ltd.) ([Zhan et al., 2022]).

[4] = system: pyramidal cells in hippocampal CA1; assay: HE staining of rat hippocampal CA1 after CPP test; format: in vivo, Sprague-Dawley (SD) rats; conditions: vs MA model group
Source text: After the CPP test, a cervical dislocation method was used to euthanize the rats. The brain tissue of each rat was cut along the midline of the sagittal plane in the head. […] The hippocampus consists of CA1, CA2, CA3, and CA4. Specifically, CA1 is mainly composed of […], and is more suitable for MA-dependent observation ([Zhong et al., 2012]). Therefore, the pyramidal cells in hippocampal CA1 were mainly observed after hematoxylin-eosin (HE) staining. The hippocampal CA1 after HE staining was observed under microscopy and then photographed.

cAMP = assay: Elisa detection of cAMP in MA-induced SH-SY5Y cells; format: cell-based, human; conditions: vs MA model group (100 μmol ·L^−1 MA, 48 h); 4x equivalent dose GTS-containing serum, MK-801 100 μmol ·L^−1
Method: as §2, §3

MA-induced CPP effect = assay: MA-dependent rat conditioned place preference (CPP) model; format: in vivo, Sprague-Dawley (SD) rats; conditions: vs MA model group, GTS 11.00 g crude drug/kg i.p., MK-801 10 mg/kg i.p.
Method: Male Sprague-Dawley (SD) rats weighing 180–220 g (2 months old) were provided by the Experimental Animal Center of Southern Medical University. The rats were maintained at room temperature (20 ± 2) °C, humidity (60 ± 5)%, 12 h light cycles, and provided an ad libitum diet. Before commencing the experiment, the rats were allowed to acclimatize for a minimum of 3 days. The Southern Medical University Experimental Animal Ethics Committee approved all animal experiments, which were conducted in accordance with the National Institutes of Health Guide for the Care and Use of Laboratory Animals (NIH publication #85–23, revised 1985). […] An MA-dependent rat CPP model was established in our previous studies and MA was used at 2 mg/kg ([Li et al., 2018b]). […] Before administration, determine the dosing volume based on each rat’s body weight; for example, a 200 g rat would receive a 1 mL dose.
Given the scarcity and specificity of […], we decided to use a 4x equivalent dose of GTS as the therapeutic dose. Thus, in the current study, only one treatment dose group of GTS was selected.
The CPP exam was made up of three phases over the course of 10 days (Figure 5A). During the habituation phase (days 1–3), each rat was allowed to move freely firom the black to white compartment for 30 min each day. On day 3, rats were videotaped throughout a 15-min trial and their movement trajectories, time spent and total movement distances were recorded. The door was closed to keep the two compartments apart during the conditioning period (on days 4–9). […] Rats were given the same amount of physiological saline (s.c.) in each group after an 8-h break, and they were then promptly segregated into the black compartment for 1 h. […] At 0:00 a.m. on day 10 (testing phase), the formal CPP testing began, rats were videotaped throughout a 15-min trial using Noldus Ethovision XT 8.5 software, and their movement trajectories, time spent and total movement distances were recorded.
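Wherever BBB (blood–brain–barrier) is given: unitless TCMSP predicted score with screening cut-off BBB at least 0.3.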

| SMILES | BBB (blood–brain–barrier) [1] | OB% (oral bioavailability) [1] | exposure in plasma and brain [2] | time at which concentration in brain peaked [2] | other results |
| --- | --- | --- | --- | --- | --- |
| O=C(/C=C/c1ccc(O)c(O)c1)O[C@@H]1C[C@](O)(C(=O)O)C[C@@H](O)[C@H]1O [Chlorogenic acid] | 0.94 | 30.70% | exposed in the plasma and brain; also recorded: absorbed into the bloodstream and distributed to brain tissues |  |  |
| CC[C@H]1CN2CC[C@]3(C(=O)Nc4ccccc43)[C@@H]2C[C@@H]1/C(=C\OC)C(=O)OC [Rhynchophylline] | 0.38 | 41.82% | exposed in the plasma and brain; also recorded: absorbed into the bloodstream and distributed to brain tissues | 6 h |  |
| COc1c2c(cc3oc(C)cc(=O)c13)OC(C(C)(C)O[C@@H]1O[C@H](CO)[C@@H](O)[C@H](O)[C@H]1O)C2 (stereo partly shown) [5-O-Methylviscumaboloside] | 0.56 | 32.47% | exposed in the plasma and brain | 6 h |  |
| COc1ccc([C@@H]2CC(=O)c3c(O)cc(O[C@@H]4O[C@H](CO[C@@H]5O[C@@H](C)[C@H](O)[C@@H](O)[C@H]5O)[C@@H](O)[C@H](O)[C@H]4O)cc3O2)cc1O [Hesperidin] | 0.82 | 32.75% | exposed in the plasma and brain; also recorded: absorbed into the bloodstream and distributed to brain tissues | 4 h |  |
| CN[C@@H](C)Cc1ccccc1 [MA, Methamphetamine hydrochloride] |  |  |  |  | viability at 48 h, 200 μmol·L^−1 [3]: < 90%; maximum safe dose (SH-SY5Y cells): 100 µmol/L |
| CC1(C)[C@@H](O[C@H]2O[C@H](C(=O)O)[C@@H](O)[C@H](O)[C@H]2O[C@@H]2O[C@H](C(=O)O)[C@@H](O)[C@H](O)[C@H]2O)CC[C@]2(C)[C@H]3C(=O)C=C4[C@@H]5C[C@@](C)(C(=O)O)CC[C@]5(C)CC[C@@]4(C)[C@]3(C)CC[C@@H]12 [Glycyrrhizic acid] | 0.80 | 30.70% |  |  | detection in brain tissues [2]: undetectable; detection in plasma [2]: detectable in plasma and at high levels |
| C[C@]12N[C@H](Cc3ccccc31)c1ccccc12 [MK-801, Dizocilpine] |  |  |  |  | level of 5-HT in SH-SY5Y cells (5-HT): same trend as GTS treatment group; damage of pyramidal cells in hippocampal CA1 (HE staining) [4]: significantly reduced damage; level of cAMP in SH-SY5Y cells (cAMP): same trend as GTS treatment group; movement trajectory in CPP box after MA training (MA-induced CPP effect; once daily days 5–9): significantly decreased; time spent in the white box after MA training (MA-induced CPP effect; n = 10): same trend as GTS treatment group; total movement distances in the white box after MA training (MA-induced CPP effect; n = 10): same trend as GTS treatment group |
| O=C1C[C@@H](c2ccc(O[C@@H]3O[C@H](CO)[C@@H](O)[C@H](O)[C@H]3O)cc2)Oc2cc(O)ccc21 [Liquiritin] | 0.61 | 58.81% |  |  | detection in brain tissues [2]: undetectable; detection in plasma [2]: detectable in plasma and at high levels |
